Data taken from US8058009B2, “Target protein and target gene in drug designing and screening method” (Reverse Proteomics Research Institute Co., Ltd., priority 2004, dated 2011).
Values belong to the compound of their own block, whether it stands above or below them.

Key:
FLJ14583-derived protein = molecular target: T1, FLJ14583-derived protein (Homo sapiens, UniProt Q12816); test: Biacore S51 surface plasmon resonance binding to FLJ14583-derived protein
T1 construct: made in house; host or cells: wheat germ cell-free synthesis system (PROTEIOS, Toyobo)
T1 sequence (Q12816 1-706 isoform Q12816-2): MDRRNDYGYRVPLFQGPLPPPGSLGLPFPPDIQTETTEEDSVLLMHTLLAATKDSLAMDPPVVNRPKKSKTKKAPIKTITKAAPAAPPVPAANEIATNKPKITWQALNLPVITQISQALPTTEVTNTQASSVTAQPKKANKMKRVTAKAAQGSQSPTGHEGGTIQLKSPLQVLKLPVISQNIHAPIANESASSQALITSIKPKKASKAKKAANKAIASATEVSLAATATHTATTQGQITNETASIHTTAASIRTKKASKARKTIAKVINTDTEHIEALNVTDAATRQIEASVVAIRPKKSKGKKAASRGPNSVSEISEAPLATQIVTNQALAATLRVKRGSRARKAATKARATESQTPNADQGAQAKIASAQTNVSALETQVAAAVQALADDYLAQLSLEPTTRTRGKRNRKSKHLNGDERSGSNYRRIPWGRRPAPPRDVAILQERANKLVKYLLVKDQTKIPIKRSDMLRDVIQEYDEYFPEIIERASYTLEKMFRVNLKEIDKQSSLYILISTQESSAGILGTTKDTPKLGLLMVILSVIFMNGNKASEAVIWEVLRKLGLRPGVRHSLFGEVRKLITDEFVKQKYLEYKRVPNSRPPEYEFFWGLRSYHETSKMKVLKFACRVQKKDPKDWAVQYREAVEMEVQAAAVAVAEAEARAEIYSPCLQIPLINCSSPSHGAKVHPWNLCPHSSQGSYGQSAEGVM
Method: (§1) A desired gene of a human full-length cDNA clone was BP-reacted with the PCR cloning vector Gateway pDONR201 using the Invitrogen Gateway system per the kit protocol to yield an entry vector. […]
(§2) The surface of the CM5 sensor chip for S51 commercially available from Biacore Company was subjected to an NTA treatment with 1 M EDC, 1.33 M NHS and 16 mg/ml AB-NTA (pH 9.2) to prepare an NTA sensor chip for S51. […] A correction for the effect of DMSO contained in the compound solutions and running buffer (solvent correction) was performed on the basis of measured results from separately prepared solutions mimicking the running buffer, and containing 3.8 to 5.1% of DMSO (8 points). The compound characterization assay program for Biacore S51 was performed to measure the interactions between immobilized ligands (proteins) and analytes (compounds; 62.5 μM to 0.244 μM), and the results were analyzed using a dedicated software program. […]

FLJ11045-derived protein = molecular target: T2, FLJ11045-derived protein (Homo sapiens, UniProt Q9BXT8, E1380K); test: Biacore S51 surface plasmon resonance binding to FLJ11045-derived protein
T2 construct: made in house; host or cells: wheat germ cell-free synthesis system (PROTEIOS, Toyobo)
T2 sequence (Q9BXT8 949-1581 isoform Q9BXT8-4 E1338K): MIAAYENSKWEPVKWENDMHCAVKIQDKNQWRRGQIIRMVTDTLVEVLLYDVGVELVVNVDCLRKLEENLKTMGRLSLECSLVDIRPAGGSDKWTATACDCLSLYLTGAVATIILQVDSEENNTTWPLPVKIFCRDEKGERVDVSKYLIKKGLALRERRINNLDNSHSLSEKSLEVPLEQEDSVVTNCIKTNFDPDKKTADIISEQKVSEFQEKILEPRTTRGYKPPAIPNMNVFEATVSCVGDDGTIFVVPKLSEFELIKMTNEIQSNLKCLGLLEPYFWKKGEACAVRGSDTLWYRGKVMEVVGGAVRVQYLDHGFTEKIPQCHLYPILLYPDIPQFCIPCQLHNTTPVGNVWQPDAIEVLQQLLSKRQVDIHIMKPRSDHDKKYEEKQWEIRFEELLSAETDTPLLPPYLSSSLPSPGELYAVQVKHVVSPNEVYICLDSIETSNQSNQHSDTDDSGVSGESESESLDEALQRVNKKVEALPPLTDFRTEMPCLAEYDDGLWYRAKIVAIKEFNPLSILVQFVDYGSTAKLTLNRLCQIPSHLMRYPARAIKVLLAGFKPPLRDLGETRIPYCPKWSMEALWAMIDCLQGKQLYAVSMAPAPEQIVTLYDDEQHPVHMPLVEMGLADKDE
Excerpt: A desired gene of a human full-length cDNA clone was BP-reacted with the PCR cloning vector Gateway pDONR201 using the Invitrogen Gateway system per the kit protocol to yield an entry vector. As the destination vector for the Gateway system, a Gateway cassette having a Gateway recombinant sequence was introduced to allow the utilization of the Gateway system on the basis of pEU3-NII (Toyobo), which matches with a cell-free protein synthesis system (PROTEIOS) of Toyobo Co., Ltd., which employs a wheat germ extract, and a double tag destination vector modified using the PCR method to allow the expression of a peptide having a histidine tag and a FLAG tag sequence in the N-terminal region of the expressed protein was prepared.
The prepared double tag destination vector and entry vector were […] using the Invitrogen Gateway system per the protocol and the Escherichia coli competent cell DH5α was transformed therewith; a clone incorporating the expression vector was selected. A plasmid was prepared from the obtained clone using the QIAfilter Midi kit (QUIAGEN) per the kit protocol. The plasmid obtained was subjected to phenol/chloroform treatment per the protocol for PROTEIOS (Toyobo) to inactivate the RNase to yield a purified expression plasmid.
A recombinant protein was synthesized using a cell-free protein synthesis system (PROTEIOS) of Toyobo Co., Ltd., which employs a wheat germ extract. Subsequently, mRNA was prepared from the expression plasmid acquired by the method described in section 1 above per the protocol for PROTEIOS. With 20 μg of the mRNA acquired, a protein was synthesized per the protocol for PROTEIOS using two wells of a 96-well microtiter plate. The protein synthesized was subjected to high-speed centrifugation, the precipitate was removed, and the resulting soluble fraction was purified using ANTI-FLAG M2 Affinity Gel (SIGMA Company) having an anti-FLAG tag antibody immobilized hereto per the protocol, to yield a purified protein.
as §2

FLJ10335-derived protein = molecular target: T3, FLJ10335-derived protein (Homo sapiens, UniProt Q9NW38, S77P); test: Biacore S51 surface plasmon resonance binding to FLJ10335-derived protein
T3 construct: made in house; host or cells: wheat germ cell-free synthesis system (PROTEIOS, Toyobo)
T3 sequence (Q9NW38 1-375 S77P): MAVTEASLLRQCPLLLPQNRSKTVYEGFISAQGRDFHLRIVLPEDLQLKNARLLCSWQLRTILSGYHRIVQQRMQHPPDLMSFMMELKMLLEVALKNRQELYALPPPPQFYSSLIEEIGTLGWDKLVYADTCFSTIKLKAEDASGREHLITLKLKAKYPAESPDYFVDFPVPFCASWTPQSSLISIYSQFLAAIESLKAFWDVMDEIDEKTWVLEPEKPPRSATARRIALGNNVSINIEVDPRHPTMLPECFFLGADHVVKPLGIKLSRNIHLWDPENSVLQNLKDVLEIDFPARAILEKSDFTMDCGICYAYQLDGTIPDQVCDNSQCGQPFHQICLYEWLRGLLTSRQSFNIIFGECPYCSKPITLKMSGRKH
Method: as §1, §2

[1] = test system: mutant SOD-transgenic mouse showing ALS-like symptoms; conditions: intraperitoneally administered; cited from earlier work
FLJ10889-derived protein = molecular target: T4, FLJ10889-derived protein (Homo sapiens, UniProt Q7L7V1, A496G/L459S/P686L/V123M); test: Biacore S51 surface plasmon resonance binding to FLJ10889-derived protein
T4 construct: made in house; host or cells: wheat germ cell-free synthesis system (PROTEIOS, Toyobo)
T4 sequence (Q7L7V1 1-743 V123M/L459S/A496G/P686L): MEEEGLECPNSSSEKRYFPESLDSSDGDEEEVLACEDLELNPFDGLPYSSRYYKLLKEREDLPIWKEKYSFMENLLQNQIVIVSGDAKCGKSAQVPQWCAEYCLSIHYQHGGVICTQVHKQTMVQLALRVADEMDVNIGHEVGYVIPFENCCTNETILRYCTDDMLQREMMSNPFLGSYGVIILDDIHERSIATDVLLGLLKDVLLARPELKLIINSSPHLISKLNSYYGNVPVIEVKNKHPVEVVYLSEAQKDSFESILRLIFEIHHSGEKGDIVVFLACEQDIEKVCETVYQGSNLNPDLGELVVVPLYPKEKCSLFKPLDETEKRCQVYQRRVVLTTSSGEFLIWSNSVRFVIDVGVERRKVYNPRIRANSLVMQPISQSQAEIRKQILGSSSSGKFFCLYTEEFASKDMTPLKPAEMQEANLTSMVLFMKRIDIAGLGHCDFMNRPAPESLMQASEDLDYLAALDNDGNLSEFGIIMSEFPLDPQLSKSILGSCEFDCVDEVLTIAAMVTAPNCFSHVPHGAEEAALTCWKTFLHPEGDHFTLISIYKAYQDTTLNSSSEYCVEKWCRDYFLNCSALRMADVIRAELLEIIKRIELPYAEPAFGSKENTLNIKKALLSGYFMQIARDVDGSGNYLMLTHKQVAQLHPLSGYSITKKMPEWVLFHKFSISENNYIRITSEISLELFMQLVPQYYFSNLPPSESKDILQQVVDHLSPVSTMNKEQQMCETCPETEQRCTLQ
Method: as §1, §2

FLJ12502-derived protein = molecular target: T5, FLJ12502-derived protein (Homo sapiens, UniProt Q7Z3D6); test: Biacore S51 surface plasmon resonance binding to FLJ12502-derived protein
T5 construct: made in house; host or cells: wheat germ cell-free synthesis system (PROTEIOS, Toyobo)
T5 sequence (Q7Z3D6 29-616): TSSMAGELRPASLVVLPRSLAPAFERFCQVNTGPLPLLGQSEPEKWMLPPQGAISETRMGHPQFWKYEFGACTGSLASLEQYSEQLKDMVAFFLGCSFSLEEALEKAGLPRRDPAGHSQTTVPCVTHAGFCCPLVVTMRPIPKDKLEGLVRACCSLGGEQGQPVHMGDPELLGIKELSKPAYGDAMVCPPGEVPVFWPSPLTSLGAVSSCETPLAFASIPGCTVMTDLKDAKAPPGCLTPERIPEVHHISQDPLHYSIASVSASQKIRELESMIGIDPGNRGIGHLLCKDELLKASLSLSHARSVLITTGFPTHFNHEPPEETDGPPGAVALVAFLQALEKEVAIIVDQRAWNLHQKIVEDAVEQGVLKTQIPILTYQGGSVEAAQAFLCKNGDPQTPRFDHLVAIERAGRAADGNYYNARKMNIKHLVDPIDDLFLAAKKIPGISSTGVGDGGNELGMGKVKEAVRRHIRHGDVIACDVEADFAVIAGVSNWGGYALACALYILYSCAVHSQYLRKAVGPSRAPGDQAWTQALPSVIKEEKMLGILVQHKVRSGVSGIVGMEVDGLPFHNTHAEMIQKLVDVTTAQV
Method: as §1, §2

Kd (FLJ14583-derived protein; Biacore S51, immobilized FLJ14583-derived protein, analyte 62.5 μM to 0.244 μM, read-out: binding dissociation constant Kd): 23 µM
interaction with the protein (binding level dose-proportional, saturated at high doses) (FLJ14583-derived protein; FLJ14583-derived protein, Biacore S51): interact specifically
SMILES: Cc1onc(-c2c(Cl)cccc2Cl)c1C(=O)N[C@@H]1C(=O)N2[C@@H]1SC(C)(C)[C@@H]2C(=O)O [dicloxacillin]

Kd (FLJ11045-derived protein; Biacore S51, immobilized FLJ11045-derived protein, analyte 62.5 μM to 0.244 μM, read-out: binding dissociation constant Kd): 11.5 µM
interaction with the protein (binding level dose-proportional, saturated at high doses) (FLJ11045-derived protein; FLJ11045-derived protein, Biacore S51): interact specifically
SMILES: CC1=C(C(=O)O)N2C(=O)[C@@H](NC(=O)[C@H](N)c3ccc(O)cc3)[C@H]2SC1 [cefadroxil]

The remaining lines, values behind:

SMILES: CC(C)C[C@H](NC(=O)[C@@H](O)[C@H](N)Cc1ccccc1)C(=O)O [ubenimex]
interaction with the protein (binding level dose-proportional, saturated at high doses) (FLJ10335-derived protein): interact specifically

SMILES: CO/N=C(\C(=O)N[C@@H]1C(=O)N2C(C(=O)O)=C(CSc3nc(=O)c(=O)[nH]n3C)CS[C@H]12)c1csc(N)n1 [ceftriaxone]
expression of GLT1 in the spinal cord [1]: increased
muscle strength [1]: increase in the muscle strength
neuron number [1]: recovery of neuron number

SMILES: CC[C@@]1(O)C[C@H](O[C@H]2C[C@H](N(C)C)[C@H](O[C@H]3C[C@H](O)[C@H](O[C@H]4CCC(=O)[C@H](C)O4)[C@H](C)O3)[C@H](C)O2)c2c(cc3c(c2O)C(=O)c2c(O)cccc2C3=O)[C@H]1C(=O)OC [aclarubicin]
interaction with the protein (binding level dose-proportional, saturated at high doses) (FLJ10889-derived protein): interact specifically

SMILES: C[C@H]1[C@H](C)CC[C@]2(C(=O)O)CC[C@]3(C)C(=CC[C@@H]4[C@@]5(C)CC[C@H](O)C(C)(C)[C@@H]5CC[C@]43C)[C@H]12 [ursolic acid]
interaction with the protein (binding level dose-proportional, saturated at high doses) (FLJ12502-derived protein): interact specifically
